Data on 14 molecules can be found in patent US20260250290A1 (BRISTOL-MYERS SQUIBB COMPANY, priority 2023, published 2026).

A word on the IC50: it is the point on the concentration scale where inhibition reaches its midpoint.

The target in one test is T1, SGK1 (Homo sapiens, UniProt O00141).
T1 sequence (O00141 1-431): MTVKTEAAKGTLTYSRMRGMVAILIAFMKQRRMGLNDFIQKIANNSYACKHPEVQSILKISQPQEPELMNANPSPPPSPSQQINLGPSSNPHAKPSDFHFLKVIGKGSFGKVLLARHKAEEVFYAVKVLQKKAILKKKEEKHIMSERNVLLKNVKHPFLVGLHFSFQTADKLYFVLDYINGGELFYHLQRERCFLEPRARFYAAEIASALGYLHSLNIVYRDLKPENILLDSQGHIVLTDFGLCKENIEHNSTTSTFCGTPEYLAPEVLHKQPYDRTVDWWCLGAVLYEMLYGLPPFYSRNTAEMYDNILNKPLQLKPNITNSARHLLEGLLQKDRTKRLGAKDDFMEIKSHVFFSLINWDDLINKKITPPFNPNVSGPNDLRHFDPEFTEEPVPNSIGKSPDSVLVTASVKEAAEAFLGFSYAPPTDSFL
Put plainly: SGK1 inhibition Assay B (Echo mass spectrometry of phosphorylated peptide product). It counts as biochemical. Particulars: 60 min at room temperature.

A further test addresses T2, full length SGK1 (Homo sapiens, UniProt O00141).
T2 construct: 125 μM full length SGK1 (Life Technologies Part #PR7358A); purchased Life Technologies PR7358A
T2 sequence (O00141 1-431): T1 sequence (O00141 1-431)
Put plainly: SGK1 inhibition Assay A (Caliper LabChip electrophoretic separation of fluorescent peptide substrate and phosphorylated product). It is filed as biochemical. Particulars: Assay A; 20 μM ATP, 40 min incubation; read-out: SGK1 IC50.

For `Nc1ncnn2c(-c3ccnc(C(F)F)c3)cc(N3CCC[C@@H](NC(=O)c4ccc(C(F)F)s4)C3)c12` [Example 482, (R)-N-(1-(4-amino-7-(2-(difluoromethyl)pyridin-4-yl)pyrrolo[2,1-f][1,2,4]triazin-5-yl)piperidin-3-yl)-5-(difluoromethyl)thiophene-2-carboxamide], the IC50 against SGK1 is 3 nM; at full length SGK1 it was 6 nM. For `Cc1cc(-c2cc(N3CCC[C@@H](NC(=O)c4sc(C)nc4OC4CCC(N5CCC5)CC4)C3)c3c(N)ncnn23)cnn1` (stereo partly drawn) [Example 1047, N—((R)-1-(4-amino-7-(6-methylpyridazin-4-yl)pyrrolo[2,1-f][1,2,4]triazin-5-yl)piperidin-3-yl)-4-((4-(azetidin-1-yl)cyclohexyl)oxy)-2-methylthiazole-5-carboxamide], 9.9 nM corresponded to half-maximal inhibition against SGK1 (IC50). `Cc1nc(OC2CCC(N3CC(O)C3)CC2)c(C(=O)N[C@@H]2CCCN(c3cc(C#N)n4ncnc(N)c34)C2)s1` (stereo partly drawn) [Example 1048, (R)—N-(1-(4-amino-7-cyanopyrrolo[2,1-f][1,2,4]triazin-5-yl)piperidin-3-yl)-4-((4-(3-hydroxyazetidin-1-yl)cyclohexyl)oxy)-2-methylthiazole-5-carboxamide] had an IC50 against SGK1 of 3.1 nM. Still for that read-out and setting: the value for `Cc1nc(OC2CCC(N3CCC3)CC2)c(C(=O)N[C@@H]2CCCN(c3cc(C#N)n4ncnc(N)c34)C2)s1` (stereo partly drawn) [Example 1049, (R)—N-(1-(4-amino-7-cyanopyrrolo[2,1-f][1,2,4]triazin-5-yl)piperidin-3-yl)-4-((4-(azetidin-1-yl)cyclohexyl)oxy)-2-methylthiazole-5-carboxamide] was 1.9 nM; that for `Cc1nc(OC2CCC(N3CCC3)CC2)c(C(=O)N[C@@H]2CCCN(c3cc(-c4csc(C(N)=O)n4)n4ncnc(N)c34)C2)s1` (stereo partly drawn) [Example 1050, (R)-4-(4-amino-5-(3-(4-((4-(azetidin-1-yl)cyclohexyl)oxy)-2-methylthiazole-5-carboxamido)piperidin-1-yl)pyrrolo[2,1-f][1,2,4]triazin-7-yl)thiazole-2-carboxamide] was 0.6 nM. For the molecule `Cc1nc(OC2CCC(N3CCC3)CC2)c(C(=O)N[C@@H]2CCCN(c3cc(-c4nc(C(N)=O)cs4)n4ncnc(N)c34)C2)s1` (stereo partly drawn) [Example 1052, (R)-2-(4-amino-5-(3-(4-((4-(azetidin-1-yl)cyclohexyl)oxy)-2-methylthiazole-5-carboxamido)piperidin-1-yl)pyrrolo[2,1-f][1,2,4]triazin-7-yl)thiazole-4-carboxamide], half-maximal inhibition at SGK1 (IC50) required 0.9 nM. Still for that read-out and setting: the value for `CC[C@H](CO)NC1CCC(Oc2nc(C)sc2C(=O)N[C@@H]2CCCN(c3cc(-c4csc(C(=O)NC)n4)n4ncnc(N)c34)C2)CC1` (stereo partly drawn) [Example 1053, 4-(4-amino-5-((R)-3-(4-((4-(((R)-1-hydroxybutan-2-yl)amino)cyclohexyl)oxy)-2-methylthiazole-5-carboxamido)piperidin-1-yl)pyrrolo[2,1-f][1,2,4]triazin-7-yl)-N-methylthiazole-2-carboxamide] was 0.8 nM; that for `CCC(C)(C)NC1CCC(Oc2nc(C)sc2C(=O)N[C@@H]2CCCN(c3cc(-c4ccc(C(N)=O)c(F)n4)n4ncnc(N)c34)C2)CC1` (stereo partly drawn) [Example 1055, (R)—N-(1-(4-amino-7-(5-carbamoyl-6-fluoropyridin-2-yl)pyrrolo[2,1-f][1,2,4]triazin-5-yl)piperidin-3-yl)-2-methyl-4-((4-(tert-pentylamino)cyclohexyl)oxy)thiazole-5-carboxamide] was 0.5 nM.

The molecule `Cc1nc(OC2CCC(NC(C)(C)C)CC2)c(C(=O)N[C@@H]2CCCN(c3cc(-c4ccc(C(N)=O)c(F)n4)n4ncnc(N)c34)C2)s1` (stereo partly drawn) [Example 1056, (R)—N-(1-(4-amino-7-(5-carbamoyl-6-fluoropyridin-2-yl)pyrrolo[2,1-f][1,2,4]triazin-5-yl)piperidin-3-yl)-4-((4-(tert-butylamino)cyclohexyl)oxy)-2-methylthiazole-5-carboxamide] had an IC50 at SGK1 of 0.7 nM. Same read-out and setting: with `COc1nc(-c2cc(N3CCC[C@@H](NC(=O)c4sc(C)nc4O[C@H]4CC[C@@H](N(C)C)CC4)C3)c3c(N)ncnn23)ccc1C(N)=O` [Example 1057, N—((R)-1-(4-amino-7-(5-carbamoyl-6-methoxypyridin-2-yl)pyrrolo[2,1-f][1,2,4]triazin-5-yl)piperidin-3-yl)-4-(((1S,4S)-4 (dimethylamino)cyclohexyl)oxy)-2-methylthiazole5-carboxamide] the figure was 1.7 nM; with `CNC(=O)c1ccc(-c2cc(N3CCC[C@@H](NC(=O)c4sc(C)nc4O[C@H]4CC[C@@H](N(C)C)CC4)C3)c3c(N)ncnn23)nc1OC` [Example 1058, N—((R)-1-(4-amino-7-(6-methoxy-5-(methylcarbamoyl)pyridin-2-yl)pyrrolo[2,1-f][1,2,4]triazin-5-yl)piperidin-3-yl)-4-(((1S,4S)-4-(dimethylamino)cyclohexyl)oxy)-2-methylthiazole-5-carboxamide], 1.1 nM. On the same count and under the same terms, with “(R)-N-(1-(4-amino-7-(4-(5-methyl-1H-tetrazol-1-yl)phenyl)pyrrolo[2,1-f][1,2,4]triazin-5-yl)piperidin-3-yl)-2-(4-methylpiperazin-1-yl)pyrimidine-4-carboxamide [Example 857]” the figure was 15 nM; with “N—((R)-1-(4-amino-7-(2-(tert-butyl)-1,1-dioxido-2,3-dihydrobenzo[d]isothiazol-5-yl)pyrrolo[2,1-f][1,2,4]triazin-5-yl)piperidin-3-yl)-5-chloro-3-(((1R,3s,5S)-8-methyl-8-azabicyclo [3.2.1]octan-3-yl)oxy)thiophene-2-carboxamide [Example 967]”, 0.9 nM; with “N—((R)-1-(4-amino-7-(5-fluoro-1-(2-methoxyethyl)-6-oxo-1,6-dihydropyridin-3-yl)pyrrolo[2,1-f][1,2,4]triazin-5-yl)piperidin-3-yl)-5-chloro-3-(((1R,3s,5S)-8-methyl-8-azabicyclo[3.2.1]octan-3-yl)oxy)thiophene-2-carboxamide [Example 974]”, 1 nM.
